Data set [1] concerns opiate blocker; withdrawal symptoms. As to the kind of experiment: Naltrexone given after the end of buprenorphine treatment (precipitated withdrawal).
Method: Since naltrexone is administered following the cessation of narcotic, there can be no residual narcotic in a patient's system, otherwise the naltrexone will push the patient into withdrawal. Therefore, the patient must wait about a week before to start naltrexone, even with extremely low doses, doses that may be considered to be homeopathic but are high enough to cause withdrawal symptoms if the narcotic is not fully washed out.
The subject of a further data set is smoking cessation. To be noted: very large reduction steps; cited from earlier work.
For data set [2], the system named is physical dependence to opioids and related substances. The data set can be described thus: Multidose tapering of buprenorphine in opiate-dependent patients (cessation success, withdrawal symptoms). It counts as in vivo. The settings on record: for Successful, percent of total patients: calculated blood level reduction no greater than 5% from previous period. An excerpt: After several years of clinical experience in the use of buprenorphine, it became clear that a single dose in mg of buprenorphine given over a short period of time would not lead to a drug-free status. […]. If the dose is reduced rapidly, the patient reacts with both physical and emotional symptoms of withdrawal. By reducing the dose slowly, the patients experience a period where there is little or no decline in biologically available narcotic and thus feel more secure as they are not experiencing even minor withdrawal symptoms.
Commercially available buprenorphine (Suboxone® & Subutex®) is available in strengths of 8.0 mg as well as 2.0 mg. However, that these medications would not suffice for a successful program, because the 2.0 mg dose was too large and too steep cut-off. […]. During inception of development of multidose treatment that led to the current invention, and using the then current state of art, buprenorphine troches for the treatment (not maintenance) of opiate dependence was used on a patient that was a person who was using I.V. 5-8 bags of heroin daily. They were started on 3 mg of buprenorphine and remained on this dose for three days. After a two day period without opiates, an attempt was made to administer the opiate blocker naltrexone which was intended to assure that a person is indeed drug free and remained so.
Many alterations in treatment protocols to prevent withdrawal were made. The alterations included a greater variety of doses ranging from 8.0 to 4.0 mg administered in a deceasing amount over time. At first the dose strengths varied from 8.0 mg administered once daily with a daily reduction of 2.0 mg until to 4.0 mg, and then to 2.0 mg.
A 6.0 mg dose was then added to the protocol. This lengthened the withdrawal period from three days to seven. This change was occasioned by the observation that the drop from 8.0 mg to 4.0 mg was all too frequently accompanied by a significant return of withdrawal symptoms and, at times, a return to use.
Despite these alterations in the treatment protocol the results were still not what were expected. The observation was made that a cut-off of 2.0 mg would cause a return of withdrawal symptoms within 24 hrs and thus the likelihood of a return to drug use before naltrexone could be started. […] As a result, a 1.0 mg lozenges were administered
A fractional buprenorphine dose was administered to reduce the severity of withdrawal symptoms. This strategy was in response to ongoing withdrawal symptoms following the “conclusion” of withdrawal or a “final” 3.0 mg dose of buprenorphine. To mitigate the withdrawal symptoms, a dose of 1.5 mg of buprenorphine was given to the patient. This particular treatment was unsuccessful as the ongoing withdrawal symptoms were too difficult for the patient who relapsed as a result.
Stepwise increments were amended to proceed in the sub 1.0 mg dose range. The taper at this time was 1.0 mg, 0.75 mg, 0.5 mg, to 0.25 mg then a four day period of blank troches followed by an upward taper of troches with naltrexone going from 0.5 mg of naltrexone to 10.0 mg of naltrexone. With serial doses of 0.25 mg of buprenorphine many patients continued to report perceptible and, in some cases, intolerable withdrawal symptoms.
As a result of the ongoing objective patient observations and patient's subjective complaints of withdrawal symptoms, a 0.1 mg dose was introduced. Additionally, a dose of 1.5 mg as well as a dose of 0.75 mg was added to the dose progression series. Although withdrawal complaints were limited, they were still present, and generally in the late phases of treatment. […] A strategy of 0.1 mg decreases in dose was implemented when the patients reached the 4.0 mg dose range (i.e., 2.0 mg twice a day) and 0.01 mg deceases in the below 1.0 mg range. The effect of this change also to extended the withdrawal period to about six to eight weeks from four weeks. […]

Consider 3 molecules from US8163731B2, “Method and dosage regimens for eliminating a chemical substance in blood” (Rhodes Technologies, priority 2008, dated 2012).

For `O=C1CC[C@@]2(O)[C@H]3Cc4ccc(O)c5c4[C@@]2(CCN3CC2CC2)[C@H]1O5` [naltrexone], the “withdrawal symptoms caused by naltrexone” value is given as “causes a return of withdrawal symptoms” in data set [1] (12.5 mg, up to five days after the end of buprenorphine treatment) and “severe withdrawal symptoms” in data set [1] (given after a two day period without opiates following 3 mg buprenorphine for three days).

For `CN1CCCC1c1cccnc1` (stereo not shown) [nicotine], the “clinical success rates over placebo” value with smoking cessation was 6-12%.

As to buprenorphine hydrochloride, the “Successful, percent of total patients” value was 50.7% in data set [2] (1-30 treatment days), 75.0% in data set [2] (31-60 treatment days) and 90.5% in data set [2] (61-90 treatment days). For the same molecule, the “Successful, number of patients” value in data set [2] (1-30 treatment days, total 75) stood at 38; in data set [2] (31-60 treatment days, total 52) it was 39; in data set [2] (61-90 treatment days, total 21), 19. In addition, in data set [2] (specific gradually decreasing but measured doses of replacement narcotic), the “success rates in achieving freedom from physical dependence to opioids and related substances” value is given as ≥ 90%.
